The results in this text go back to US9695132B2, “Heteroaryl compounds and uses thereof” (Celgene CAR LLC, priority 2013, dated 2017).

One assay addresses FGFR4-WT (Homo sapiens (Human), UniProt P22455). Put plainly: Omnia assay for potency assessment against FGFR4 enzyme. The class given is biochemical. The settings on record: method b: [FGFR4-WT]=2.5 nM (SignalChem), [ATP]=250 uM, [Y10-Sox]=10 uM. An outline of the steps:
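Continuous fluorescence kinase assay using wild-type FGFR4 from either of two commercial sources, Tyr-Sox peptide substrate and ATP in pH 7.5 Tris buffer with MgCl2, EGTA, β-glycerophosphate, glycerol and DTT.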

The target in assay [1] is FGFR4 in MDA-MB-453 cells (Homo sapiens, UniProt P22455). In words: Target occupancy assay with biotinylated covalent probe I-127. The format is cell-based.
FGFR4 in MDA-MB-453 cells, sequence (P22455 22-802 limits assumed): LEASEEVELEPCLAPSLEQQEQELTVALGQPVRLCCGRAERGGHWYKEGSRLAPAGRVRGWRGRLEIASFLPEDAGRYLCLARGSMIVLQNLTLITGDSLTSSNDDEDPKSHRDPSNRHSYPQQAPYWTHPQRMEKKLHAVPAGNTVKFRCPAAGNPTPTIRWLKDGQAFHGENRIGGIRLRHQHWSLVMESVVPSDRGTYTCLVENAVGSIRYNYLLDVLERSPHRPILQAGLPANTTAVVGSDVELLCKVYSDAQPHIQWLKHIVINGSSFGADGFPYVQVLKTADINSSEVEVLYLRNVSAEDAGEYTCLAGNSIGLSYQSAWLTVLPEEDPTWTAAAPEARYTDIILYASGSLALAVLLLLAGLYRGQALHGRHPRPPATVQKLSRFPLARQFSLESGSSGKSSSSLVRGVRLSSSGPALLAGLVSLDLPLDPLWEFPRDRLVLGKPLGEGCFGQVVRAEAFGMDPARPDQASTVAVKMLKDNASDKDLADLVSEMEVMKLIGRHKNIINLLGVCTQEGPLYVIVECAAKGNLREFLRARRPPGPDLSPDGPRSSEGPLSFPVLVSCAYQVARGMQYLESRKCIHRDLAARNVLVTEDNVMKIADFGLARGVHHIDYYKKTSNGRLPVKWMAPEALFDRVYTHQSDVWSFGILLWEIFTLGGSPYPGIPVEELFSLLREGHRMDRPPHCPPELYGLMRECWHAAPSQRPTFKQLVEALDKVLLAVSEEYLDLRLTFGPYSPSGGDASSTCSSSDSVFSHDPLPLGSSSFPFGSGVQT
Procedure: In order to assess free FGFR4 protein a biotinylated covalent probe was utilized. […] The reaction was incubated for 2 hr at room temperature. The samples and probe mixture were transferred to a FGFR4-coated MSD plate for 2 hr at room temperature. MSD signals were obtained with an anti-streptavidin Sulfo-tag (Meso Scale) antibody for 1 hr at room temperature. […] If a compound completely (100%) covalently modies FGFR4 no free FGFR4 should be available for covalent modification by the biotinylated probe and subsequent binding to streptavidin and detection.
Assay [2] has as its target pFGFR4 in MDA-MB-453 cells (Homo sapiens, UniProt P22455). In words: Washout experiment (pFGFR4 after compound removal). The conditions noted are these: 1000-2000 nM for 1 hr, washed, followed up to 24 hr. The class given is cell-based. The method, then: The cells were allowed to settle down for 4 hrs and were then maintained in low-serum (0.1% FBS) media overnight. The following morning, the media was removed and the cells were treated with 1000-2000 nM of test compound in low-serum media for 1 hr. The cells were washed free of test compound (3×) with PBS (Invitrogen). One set of cells was immediately lysed as indicated above as the 0 hr time point. The remaining cells were incubated with the appropriate complete growth media (10-20% FBS) for 1, 2, 4, 8, 16 (in certain circumstances) and 24 hr. DMSO (0.5%) controls were collected at all time points.

“Also recorded” adds a separate entry of the source.

pFGFR4 in MDA-MB-453 cells, sequence (P22455 22-802 limits assumed): as above
FGFR4-WT, sequence (P22455 22-802): as the sequence (P22455 22-802 limits assumed) above

As to `C=CC(=O)Nc1ccccc1Nc1ncc2c(n1)N(Cc1ccccc1)C(=O)N(c1c(Cl)c(OC)cc(OC)c1Cl)C2` [Compound I-3], the IC50 at FGFR4-WT is under 100 nM. In assay [1], this compound showed a concentration giving a half-maximal response (EC50) of under 100 nM.

With `CCC(=O)Nc1cccc(CN2C(=O)N(c3c(Cl)c(OC)cc(OC)c3Cl)Cc3cnc(Nc4ccccc4NC(=O)CC)nc32)c1` [Compound I-234], the IC50 on FGFR4-WT lay within 101 to 500 nM. For the same compound, in assay [1], the EC50 is over 1000 nM. Also, the “duration of action against pFGFR4 signalling after washout” value in assay [2] is “does not show prolonged duration of action; also recorded: does not have PDA”.

In the case of `C=CC(=O)NC1CCCCC1Nc1ncc2c(n1)N(Cc1cscn1)C(=O)N(c1c(Cl)c(OC)cc(OC)c1Cl)C2` (racemic) [Compound I-69], the “duration of action against pFGFR4 signalling after washout” value in assay [2] is reported as “prolonged inhibition of autophosphorylation of FGFR4; also recorded: prolonged duration of action”.
